The values that follow come from publication PMC12881681 (Molecular Pharmacology, 2025).

Series [1] is described as follows: Pharmacokinetics study in mice: erlotinib pretreatment, carbazeran and 4-oxo-carbazeran. It counts as in vivo, BALB/c mice. As to conditions: for AUC(0-inf) / Cmax / Tmax / AUC0-∞: blood; for AUC(0-inf) / Cmax / CL/F / MRT inf / Tmax / AUC0-∞ / MRT0-∞: carbazeran 10 mg/kg p.o.; for CL/F: read-out: Apparent oral clearance (CL/F) (converted); for MRT inf: read-out: MRT0-∞. As for the experimental part: BALB/c mice (male, ∼8 weeks old) were purchased and housed at the Biological Resource Centre, Agency for Science, Technology and Research (A∗STAR). The experimental protocol was approved by the A∗STAR Institutional Review Board. […] Blood (12.5 μL) was drawn from the tail vein (with a needle prick) at various times (0.25, 0.5, 0.75, 1, 2, 3, 4, 6, and 8 hours) after carbazeran dosing. The blood samples were diluted 2 times with 12.5 μL of water. Acetonitrile containing the internal standard (carbazeran-d4, 4 nM in 75 μL acetonitrile and 3 nM in final sample volume of 100 μL) was added to the blood samples to precipitate proteins. […] Blank and standard calibration samples were prepared from control mice that were not treated with any chemicals. Pharmacokinetic data were analyzed by noncompartmental analysis using Phoenix WinNonlin 6.3 (Certara).
At the end of the last blood collection (8 hour post-carbazeran dosing), the mice were sacrificed. […] The tissue samples were homogenized, and a 12.5 μL aliquot of the homogenate was diluted with an equal volume of water. Acetonitrile containing the internal standard (carbazeran-d4, 4 nM in 75 μL acetonitrile and 3 nM in final sample volume of 100 μL) was added to the diluted tissue samples (25 μL) to precipitate the proteins.

Series [2] has as its target T1, human liver cytosolic AOX1 (Homo sapiens, UniProt Q06278).
T1 sequence (Q06278 1-1338): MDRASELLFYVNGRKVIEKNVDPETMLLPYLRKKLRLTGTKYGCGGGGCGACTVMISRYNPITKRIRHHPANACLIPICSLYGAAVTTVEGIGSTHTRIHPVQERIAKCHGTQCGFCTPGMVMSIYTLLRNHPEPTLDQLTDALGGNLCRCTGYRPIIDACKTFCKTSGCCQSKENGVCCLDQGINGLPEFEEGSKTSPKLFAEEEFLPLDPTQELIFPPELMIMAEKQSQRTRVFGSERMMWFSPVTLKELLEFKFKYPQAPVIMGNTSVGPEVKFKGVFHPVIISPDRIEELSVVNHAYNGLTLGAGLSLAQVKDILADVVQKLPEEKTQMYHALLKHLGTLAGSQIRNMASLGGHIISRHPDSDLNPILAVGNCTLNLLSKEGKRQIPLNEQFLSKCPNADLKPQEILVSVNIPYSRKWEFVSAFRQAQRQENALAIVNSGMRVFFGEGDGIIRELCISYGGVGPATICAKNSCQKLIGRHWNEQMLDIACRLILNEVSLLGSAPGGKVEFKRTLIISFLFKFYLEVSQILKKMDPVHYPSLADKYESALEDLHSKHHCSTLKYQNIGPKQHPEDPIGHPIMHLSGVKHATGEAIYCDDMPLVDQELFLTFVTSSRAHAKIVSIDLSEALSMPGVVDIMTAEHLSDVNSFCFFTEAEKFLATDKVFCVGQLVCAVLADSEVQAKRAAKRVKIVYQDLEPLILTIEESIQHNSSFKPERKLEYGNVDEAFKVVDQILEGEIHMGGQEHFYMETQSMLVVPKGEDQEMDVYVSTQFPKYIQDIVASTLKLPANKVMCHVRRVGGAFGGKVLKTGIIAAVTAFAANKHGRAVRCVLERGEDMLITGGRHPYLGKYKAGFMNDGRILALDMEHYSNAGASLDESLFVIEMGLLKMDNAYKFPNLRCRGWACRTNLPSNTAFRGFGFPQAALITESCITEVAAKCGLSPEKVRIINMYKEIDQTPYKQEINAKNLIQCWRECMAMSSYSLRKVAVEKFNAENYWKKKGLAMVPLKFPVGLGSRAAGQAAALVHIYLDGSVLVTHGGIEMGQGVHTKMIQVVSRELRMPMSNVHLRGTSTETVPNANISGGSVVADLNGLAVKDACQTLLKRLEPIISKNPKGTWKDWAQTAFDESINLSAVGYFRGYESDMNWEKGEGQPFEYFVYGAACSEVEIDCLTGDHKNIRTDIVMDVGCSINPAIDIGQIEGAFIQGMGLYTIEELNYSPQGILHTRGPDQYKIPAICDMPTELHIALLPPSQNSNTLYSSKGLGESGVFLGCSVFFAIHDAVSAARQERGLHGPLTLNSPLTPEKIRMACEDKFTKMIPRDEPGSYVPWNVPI
Description: Enzyme inactivation of human liver cytosolic AOX1-mediated carbazeran 4-oxidation. As for the experimental part: Carbazeran 4-oxidation and O^6-benzylguanine 8-oxidation were deployed as AOX1-selective catalytic markers.[27] The assay conditions (amount of cytosolic protein, incubation time, and substrate concentration) for carbazeran 4-oxidation catalyzed by human recombinant AOX1 and human/rat/mouse liver cytosols were optimized previously.[7]^,[25]
Enzymatic reaction was initiated by adding human liver cytosol (100 μg). After the specified preincubation duration, an aliquot (10 μL) of the preincubation mixture was transferred to 190 μL of a prewarmed (for 3 minutes at 37 °C) secondary incubation mixture (total volume of 200 μL) containing potassium phosphate buffer and carbazeran (15 μM) or O^6-benzylguanine (150 μM), which yielded a 20-fold dilution of the primary incubation mixture. The secondary incubation mixture was incubated for 5 minutes at 37 °C before the enzymatic reaction was terminated with 200 μL of ice-cold acetonitrile containing carbazeran-d4 (2.5 nM final concentration; internal standard for 4-oxo-carbazeran) or tolbutamide (25 nM final concentration; internal standard for 8-oxo-O^6-benzylguanine). Each sample was immediately mixed by vortex, placed on ice, centrifuged at 16,000g for 15 minutes at 4 °C and stored at –30 °C until ultra-high performance liquid chromatography–tandem mass spectrometry (UPLC-MS/MS) analysis. For enzyme inactivation assays involving rat and mouse liver cytosol and recombinant AOX1 assays, the experimental conditions were similar to those of human liver cytosol, except that the amount of cytosolic protein was 200 μg (rat) and 150 μg (mouse), respectively, and the incubation time of the secondary incubation mixture was 60 minutes. For the recombinant AOX1 enzyme assay, the amount of enzyme was 100 μg, the incubation time of the secondary incubation mixture was 15 minutes, and the total volume of the primary and secondary incubation mixtures was reduced to 100 μL.
Preliminary experiments were performed to optimize the incubation time and concentration of an inactivator to ensure a log-linear decrease in enzyme activity over time and that the kobs versus inactivator concentration plot reaches a plateau for the determination of the kinact value. The observed first-order rate constant for inactivation (kobs), maximal inactivation rate constant (kinact), half-maximal inactivation concentration (KI), and the time required for half of the enzyme molecules to be inactivated (t1/2) were calculated as described in our previous publication.[28]

Series [3] deals with T1, human liver cytosolic AOX1. Description: Partition ratio determination (titration, human liver cytosol). On the set-up: Enzymatic reaction was initiated by adding human liver cytosol (100 μg); tissue Corning, Inc. (Gentest brand) 452115; host or cells: human liver cytosol, pool of 150 donors. It counts as biochemical. As for the experimental part: The enzyme kinetic experiments were conducted as described above. The incubation was allowed to proceed until saturation of enzyme has been reached (6 or 18 minutes, as specified in each figure legend). Carbazeran 4-oxidation was plotted against the ratio of inactivator concentration to AOX1 protein concentration in the incubation mixture of 200 μL. The specific lot of human liver cytosol (#38292) used in this study contained 1.05 ± 0.01 pmol/μL (mean ± SD) of AOX1 protein, as assessed by capillary nanoproteomic immunoassay.[27] The turnover number was the extrapolation of the intercept of the 2 linear regression lines to the x-axis, which was determined by solving the 2 linear regression equations. The partition ratio was calculated by subtracting the turnover number by 1, assuming 1:1 stoichiometry between the inactivator and the enzyme.[29]

In series [4] the target is T1, human liver cytosolic AOX1. It counts as biochemical. The note with it: potassium ferricyanide 2 mM, 0 or 6 min preincubation. Further details: Enzymatic reaction was initiated by adding human liver cytosol (100 μg); tissue Corning, Inc. (Gentest brand) 452115; host or cells: human liver cytosol, pool of 150 donors. As for the experimental part: The residual AOX1 enzyme activity was determined by the carbazeran 4-oxidation assay.
A test chemical at a concentration described above was incubated with human liver cytosol (100 μg protein) at 37 °C for 0 or 6 minutes. […] After 10-minute incubation, an aliquot (50 μL) of the […] (total volume of 200 μL) containing potassium phosphate buffer and carbazeran (15 μM), which yielded a 4-fold dilution of the secondary incubation mixture. The residual AOX1 enzyme activity was determined as described above.

In series [5] the target is T1, human liver cytosolic AOX1. Nature of the series: Effects of a competing AOX1 substrate and a competitive AOX1 inhibitor on AOX1 inactivation. It is filed as biochemical. Further details: Enzymatic reaction was initiated by adding human liver cytosol (100 μg); tissue Corning, Inc. (Gentest brand) 452115; host or cells: human liver cytosol, pool of 150 donors. The note with it: 120 and 240 μM, human liver cytosol (data not shown). As for the experimental part: The molar ratio of O^6-benzylguanine (120, 240, and 480 μM) to 3-vinylerlotinib (10 μM) was 12, 24, and 48, O^6-benzylguanine to 4′-methylerlotinib (3 μM) was 40, 80, and 160, and O^6-benzylguanine to 2-methylerlotinib (1 μM) was 120, 240, and 480, respectively. […] Each standard incubation mixture was subjected to the same procedures as described in Enzyme Inactivation Experiments. The residual AOX1 enzyme activity was determined by the carbazeran 4-oxidation or O^6-benzylguanine 8-oxidation assay.

[6] abbreviates: male, BALB/c, mouse, whole blood, po, 10 mg/kg, Control (vehicle pretreatment).
The mark [7] stands for this setting: male, BALB/c, mouse, whole blood, po, 10 mg/kg, erlotinib 100 mg/kg p.o. 2 h before.
Setting [8] is: human liver cytosol, carbazeran 4-oxidation.
Where [9] appears, read: erlotinib 100 mg/kg p.o. 2 h before.

Structures are written as SMILES. Like-named read-outs stand apart in the source and are kept apart here.

As for `CCNC(=O)OC1CCN(c2nncc3cc(OC)c(OC)cc23)CC1` [Carbazeran, carbazeran], in series [1] (setting [6]), the AUC(0-inf) (in general, total exposure, with the tail of the curve extrapolated) worked out at 2.52 ± 0.46 µM·h; the Cmax (as a rule, the maximum level reached in the sampled fluid or tissue) was found to be 3470 ± 1390 nM; the CL/F was 188 mL/min/kg; the MRT inf is 79.2 ± 26.4 min. In series [1] (setting [7]), the total exposure AUC(0-inf) worked out at 4.6 ± 2.02 µM·h, the highest concentration (Cmax) turned out to be 3530 ± 2180 nM, the CL/F is 114 mL/min/kg and the MRT inf came to 139 ± 45.6 min. Besides, the Tmax (in general, the time from dosing to the highest level) in series [1] (male, BALB/c, mouse, whole blood, po, Control (vehicle pretreatment), read-out: Tmax) was 17.4 ± 5.4 min.
Regarding `CCc1cccc(Nc2ncnc3cc(OCCOC)c(OCCOC)cc23)c1` [Tetrahydroerlotinib, tetrahydroerlotinib], the KI entry in series [2] (half-maximal inactivation concentration, human liver cytosol, carbazeran 4-oxidation) is “No inactivation”. Besides, the kinact result in series [2] (human liver cytosol 100 μg, carbazeran 15 μM, 37 °C) is given as “No inactivation”. The “decrease in carbazeran 4-oxidation” value in series [2] (human liver cytosol, 10 μM (raloxifene 0.02 μM), 30-minute preincubation) is reported as “did not decrease”; in series [2] (human liver cytosol, 50 μM, 120 minutes preincubation), “did not decrease”. Besides, the “Inactivation t1/2” value in series [2] (setting [8]) is listed as “No inactivation”. Besides, the kinact/KI result in series [2] (setting [8]) is on record as “No inactivation”. Moreover, in series [2] (unbound, KI,u = fu × KI, fu at 10 μM in human liver cytosol), the “KI,u” value is given as “No inactivation”. Moreover, the “Turnover Number” value in series [3] (human liver cytosol) is on record as “No inactivation”. For the same compound, in series [3] (turnover number minus 1), the “Partition Ratio” value is reported as “No inactivation”. In series [4], the “effect of coincubation or postincubation with potassium ferricyanide on AOX1 inactivation” value was “not changed”.
Regarding `CCNC(=O)OC1CCN(c2n[nH]c(=O)c3cc(OC)c(OC)cc23)CC1` [4-Oxo-Carbazeran, 4-oxo-carbazeran], in series [1] (Control (vehicle pretreatment)), the “Ratio of AUC0-∞ (metabolite) to AUC0-∞ (parent)” value (from here on “Ratio of AUC0-∞ (metabolite)”) was 0.31 ± 0.06, the “AUC0-∞” value was determined as 0.78 ± 0.23 µM·h, the maximum concentration (Cmax) is 920 ± 390 nM and the Tmax was 19.2 ± 7.2 min. Moreover, the “MRT0-∞” value in series [1] (Control (vehicle pretreatment)) is listed as 0.98 ± 0.19 h. Besides, the “Ratio of AUC0-∞ (metabolite)” value in series [1] (Control (vehicle pretreatment), listed as 4-oxo-carbazeran) worked out at 0.31. Also, in series [1] (setting [9]), the “AUC0-∞” value is listed as 0.027 ± 0.009∗∗∗∗ μM.h, the Cmax is 8 ± 3 nM, the Tmax turned out to be 27.6 ± 16.2 min and the “MRT0-∞” value is given as 8.98 ± 8.73∗ h. Also, in series [1] (erlotinib 100 mg/kg p.o. 2 h before carbazeran), the “Ratio of AUC0-∞ (metabolite)” value was 0.007 ± 0.003∗∗∗∗.
Take `Nc1nc(OCc2ccccc2)c2nc[nH]c2n1` [O^6-benzylguanine]: the “effect of O^6-benzylguanine alone on carbazeran 4-oxidation” value in series [5] is given as “did not affect the activity”.
